Experimental findings from US8835458B2 (Hanmi Science Co., Ltd, priority 2010, dated 2014) are described below.

In data set [1] the test system is MDA-MB-231 breast cancer cell lines. Kind of data set: Evaluation of inhibition on cell growth (MTS). Type of data set: cell-based. Particulars: Homo sapiens, MDA-MB-231, 120 hours. The procedure:
(§1) MDA-MB-231 breast cancer cell lines (ATCC #HTB-26) and BxPC-3 pancreas cancer cell lines (ATCC #CRL 1687), which have been reported to express XIAP, were obtained from ATCC (American type culture collection; Rockville, Md.). MDA-MB-231 cell lines were incubated in L-15 medium supplemented with 10% FBS and 1% penicillin/streptomycin (Gibco BRL) at a T-75 cm^2 growth flask. In addition, BxPC-3 cell lines were incubated in RPMI medium supplemented with 10% FBS and 1% penicillin/streptomycin. For experiments of toxicity to normal cells, fibroblasts Hs27 (ATCC #CRL 1634) and Balb/c3t3 (ATCC #CCL 163) were used. The various cell lines were transferred into 96-well plates at a density of 3,000˜5,000 cells/100 μL, and cultured for 24 hours under conditions of 37° C., 5% CO2, 95% air, and 100% relative humidity (MDA-MB-231 cells were cultured under atmospheric conditions). The cells were treated with 10 μM˜0.1 nM of test compounds, and MDA-MB-231, BxPC-3, and normal cell lines were cultured for 120, 96, and 72 hours, respectively.
(§2) Cell viabilities of MDA-MB-231 cell lines were measured at an absorbance of 490 nm using CellTiter 96™ AQueous One Solution Cell proliferation Assay (MTS, Promega), and cell viabilities of BxPC-3 and normal cell lines were measured by fixing cells with 10% TCA (trichloroacetic acid), staining with SRB (sulforhodamine B), and measuring at 540 nm. From the values, GI50 values in which test compounds reduce the growth of cancer cells by 50% were calculated. The growth rates of cancer cells were calculated from following Equation 1 or 2. [(Ti−Tz)/(C−Tz)]×100 (for Ti>=Tz) [Equation 1] [(Ti−Tz)/Tz]×100 (for Ti<Tz) [Equation 2] In Equations 1 and 2, Tz refers to a density of untreated cells, which is an absorbance in 0% cell growth groups. C refers to a density of cells cultured by adding only medium, and Ti refers to a density of cells treated with test compounds.
(§3) GI50 value is the concentration of a test compound when the value of Equation 1 is 50, which indicates the concentration of test compound required to inhibit the cancer cells by 50%. On each measurement, test compounds were compared with a control.
(§4) The activity value of each compound (GI50 value) was shown in Table 5, and an IAP antagonist was used as a control.
(§5) In the activity measurement on MDA-MB-231 breast cancer cell lines, the values were represented as “***” for 100 nM or less, “**” for over 100 nM to below 1,000 nM, and “*” for 1,000 nM or more. In the measurement on normal cell lines, Balb/C and Hs27, the values were represented as “+++” for 10,000 nM or more, “++” for over 5,000 nM to below 10,000 nM, and “+” for 5,000 nM or less.

Data set [2] in a line: Toxicity to normal cells (SRB). It is filed as cell-based, mouse. Particulars: mouse, Balb/c3t3 fibroblasts (normal cell line), read-out: BalB/C (GI50). The procedure:
as §1, §2, §3, §4, §5

Data set [3] can be described thus: Toxicity to normal cells (SRB). Type of data set: cell-based, human. As to conditions: human, Hs27 fibroblasts (normal cell line). The protocol:
as §1, §2, §3, §4, §5

Structures can show the parent of a compound that is named as a salt. Where two headings read alike, the source gives them in different places.

On to `CN[C@@H](C)C(=O)N[C@H](C(=O)N1CCC[C@H]1C(=O)Nc1cc2c(Nc3ccncc3)ncnc2cc1OC)C(C)(C)C` [Example 73, (S)-1-((S)-3,3-dimethyl-2-((S)-2-(methylamino)propanamido)butanoyl)-N-(7-methoxy-4-(pyridin-4-ylamino)quinazolin-6-yl)pyrrolidine-2-carboxamide hydrochloride], for which the GI50 in data set [1] was ≤ 0.1 µM. Also, the GI50 at 72 h in data set [2] and in data set [3] was > 10 µM each time.
`CN[C@@H](C)C(=O)N[C@H](C(=O)N1CCC[C@H]1C(=O)Nc1cc2c(Nc3ccc(F)c(Cl)c3)ncnc2cc1OC)C(C)(C)C` [Example 41, (S)—N-(4-(3-chloro-4-fluorophenylamino)-7-methoxyquinazolin-6-yl)-1-((S)-3,3-dimethyl-2-((S)-2-(methylamino)propanamido)butanoyl)pyrrolidine-2-carboxamide hydrochloride]: the GI50 in data set [1] is ≤ 0.1 µM. Moreover, the GI50 at 72 h in data set [2] and in data set [3] was > 10 µM throughout.
Take `CN[C@@H](C)C(=O)N[C@H](C(=O)N1CCC[C@H]1C(=O)Nc1cc2c(Nc3ccc(Cl)cc3Cl)ncnc2cc1OC)C(C)(C)C` [Example 58, (S)—N-(4-(2,4-dichlorophenylamino)-7-methoxyquinazolin-6-yl)-1-((S)-3,3-dimethyl-2-((S)-2-(methylamino)propanamido)butanoyl)pyrrolidine-2-carboxamide hydrochloride]: the GI50 in data set [1] is ≤ 0.1 µM. In addition, the GI50 at 72 h in data set [2] and in data set [3] was > 10 µM throughout.
Consider `CCN1CCN(c2ccc(Nc3ncnc4cc(OC)c(NC(=O)[C@@H]5CCCN5C(=O)[C@@H](NC(=O)[C@H](C)NC)C(C)(C)C)cc34)cc2F)CC1` [Example 71, (S)-1-((S)-3,3-dimethyl-2-((S)-2-(methylamino)propanamido)butanoyl)-N-(4-(4-(4-ethylpiperazin-1-yl)-3-fluorophenylamino)-7-methoxyquinazolin-6-yl)pyrrolidine-2-carboxamide dihydrochloride], for which the GI50 in data set [1] is ≤ 0.1 µM. For the same compound, the GI50 at 72 h in data set [2] and in data set [3] was > 10 µM throughout.
With `CN[C@@H](C)C(=O)N[C@H](C(=O)N1CCC[C@H]1C(=O)Nc1cc2c(Nc3ccccc3Cl)ncnc2cc1OC)C(C)(C)C` [Example 21, (S)—N-(4-(2-chlorophenylamino)-7-methoxyquinazolin-6-yl)-1-((S)-3,3-dimethyl-2-((S)-2-(methylamino)propanamido)butanoyl)pyrrolidine-2-carboxamide hydrochloride], the GI50 in data set [1] is ≤ 0.1 µM. Also, the GI50 at 72 h in data set [2] and in data set [3] was > 10 µM each time.
For the compound `CN[C@@H](C)C(=O)N[C@H](C(=O)N1CCC[C@H]1C(=O)Nc1cc2c(Nc3c(Cl)ccc4c3OCO4)ncnc2cc1OCCOC)C(C)(C)C` [Example 3, ((S)—N-(4-(5-chlorobenzo[d][1,3]dioxol-4-ylamino)-7-(2-methoxyethoxy)quinazolin-6-yl)-1-((S)-3,3-dimethyl-2-((S)-2-(methylamino)propanamido)butanoyl)pyrrolidine-2-carboxamide hydrochloride], the GI50 in data set [1] lay in the range of 0.1 to 1 µM. The GI50 at 72 h in data set [2] and in data set [3] was > 10 µM each time.
In data set [1], `CN[C@@H](C)C(=O)N[C@H](C(=O)N1CC[C@H]1C(=O)Nc1cc2c(Nc3ccc(F)c(Cl)c3F)ncnc2cc1OC)C(C)(C)C` [Example 20, (S)—N-(4-(3-chloro-2,4-difluorophenylamino)-7-methoxyquinazolin-6-yl)-1-((S)-3,3-dimethyl-2-((S)-2-(methylamino)propanamido)butanoyl)azetidine-2-carboxamide hydrochloride] came in with a GI50 of 0.1 to 1 µM. In addition, the GI50 at 72 h in data set [2] and in data set [3] was > 10 µM in each case.
In the case of `CN[C@@H](C)C(=O)N[C@H](C(=O)N1CCC[C@H]1C(=O)Nc1cc2c(N3CCCCC3)ncnc2cc1OC)C(C)(C)C` [Example 24, (S)-1-((S)-3,3-dimethyl-2-((S)-2-(methylamino)propanamido)butanoyl)-N-(7-methoxy-4-(piperidin-1-yl)quinazolin-6-yl)pyrrolidine-2-carboxamide hydrochloride], the GI50 in data set [1] is ≤ 0.1 µM. In addition, the GI50 at 72 h in data set [2] and in data set [3] was > 10 µM each time.
Consider `CN[C@@H](C)C(=O)N[C@H](C(=O)N1CCC[C@H]1C(=O)Nc1cc2c(Nc3ccc(NC(C)=O)cc3)ncnc2cc1OC)C(C)(C)C` [Example 69, (S)—N-(4-(4-acetamidophenylamino)-7-methoxyquinazolin-6-yl)-1-((S)-3,3-dimethyl-2-((S)-2-(methylamino)propanamido)butanoyl)pyrrolidine-2-carboxamide], for which the GI50 in data set [1] is ≤ 0.1 µM. The GI50 at 72 h in data set [2] and in data set [3] was > 10 µM each time.
For the compound `COc1cc2ncnc(Nc3ccc(F)c(Cl)c3F)c2cc1NC(=O)[C@@H]1CCCN1C(=O)[C@@H](NC(=O)[C@H](C)N)C(C)(C)C` [Example 12, (S)-1-((S)-2-((S)-2-aminopropanamido)-3,3-dimethylbutanoyl)-N-(4-(3-chloro-2,4-difluorophenylamino)-7-methoxyquinazolin-6-yl)pyrrolidine-2-carboxamide hydrochloride], in data set [1], the GI50 was ≥ 1 µM. In addition, the GI50 at 72 h in data set [2] and in data set [3] was > 10 µM throughout.
Turning to `CN[C@@H](C)C(=O)N[C@H](C(=O)N1CCC[C@H]1C(=O)Nc1cc2c(N3CCCc4ccccc43)ncnc2cc1OC)C(C)(C)C` [Example 50, (S)—N-(4-(3,4-dihydroquinoline-1(2H)-yl)-7-methoxyquinazolin-6-yl)-1-((S)-3,3-dimethyl-2-((S)-2-(methylamino)propanamido)butanoyl)pyrrolidine-2-carboxamide hydrochloride], the GI50 in data set [1] is ≤ 0.1 µM. The GI50 at 72 h in data set [2] and in data set [3] was > 10 µM throughout.
As for `CN[C@@H](C)C(=O)N[C@H](C(=O)N1CCC[C@H]1C(=O)Nc1cc2c(Nc3ccc(C4CCCN(C)C4)cc3)ncnc2cc1OC)C(C)(C)C` (stereo partly drawn) [Example 109, (2S)-1-((S)-3,3-dimethyl-2-((S)-2-(methylamino)propanamido)butanoyl)-N-(7-methoxy-4-((4-(1-methylpiperidin-3-yl)phenyl)amino)quinazolin-6-yl)pyrrolidine-2-carboxamide hydrochloride], the GI50 in data set [1] was ≤ 0.1 µM. Further, the GI50 at 72 h in data set [3] is > 10 µM.
As to `CN[C@@H](C)C(=O)N[C@H](C(=O)N1CCC[C@H]1C(=O)Nc1cc2c(Nc3ccc(S(=O)(=O)N4CCN(C)CC4)cc3)ncnc2cc1OC)C(C)(C)C` [Example 108, (S)-1-((S)-3,3-dimethyl-2-((S)-2-(methylamino)propanamido)butanoyl)-N-(7-methoxy-4-((4-((4-methylpiperazin-1-yl)sulfonyl)phenyl)amino)quinazolin-6-yl)pyrrolidine-2-carboxamide hydrochloride], the GI50 in data set [1] is ≤ 0.1 µM. In addition, in data set [3], the GI50 at 72 h was > 10 µM.
Regarding `CN[C@@H](C)C(=O)N[C@H](C(=O)N1CCC[C@H]1C(=O)Nc1cc2c(Nc3ccc(N4CCN(CC5CC5)CC4)c(Cl)c3)ncnc2cc1OC)C(C)(C)C` [Example 92, (S)—N-(4-((3-chloro-4-(4-(cyclopropylmethyl)piperazin-1-yl)phenyl)amino)-7-methoxyquinazolin-6-yl)-1-((S)-3,3-dimethyl-2-((S)-2-(methylamino)propanamido)butanoyl)pyrrolidine-2-carboxamide], the GI50 in data set [1] was ≤ 0.1 µM. In data set [3], the GI50 at 72 h is > 10 µM.
As to `CN[C@@H](C)C(=O)N[C@H](C(=O)N1CCC[C@H]1C(=O)Nc1cc2c(Nc3ccc(N4CCOCC4)c(Cl)c3)ncnc2cc1OC)C(C)(C)C` [Example 95, (S)—N-(4-((3-chloro-4-morpholinophenyl)amino)-7-methoxyquinazolin-6-yl)-1-((S)-3,3-dimethyl-2-((S)-2-(methylamino)propanamido)butanoyl)pyrrolidine-2-carboxamide], in data set [1], the GI50 is ≤ 0.1 µM. Moreover, in data set [3], the GI50 at 72 h was > 10 µM.
